Measurements reported in patent publication US11957759B1, “Rapidly accelerated fibrosarcoma (RAF) degrading compounds and associated methods of use” (Arvinas Operations, Inc., priority 2022, dated 2024).

Legend:
[1] = target: T1, B-RAF G466V (Homo sapiens, UniProt P15056, G466V); test: Target protein degradation, assay D: T-Rex 293 cells, HA-BRAF_G466V, 384 well format; type: cell-based; settings: T-Rex 293 HA-BRAF_G466V cells, 24 hours, Examples 83-269; for DC50: Assay D; for Dmax: T-REx-293, Assay D
T1 construct: expressed in transfected cells; host or cells: T-Rex 293 cells (Invitrogen #R71007)
Outline: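 T-Rex 293 cells stably expressing doxycycline-induced (1 ng/mL) HA-BRAF G466V treated 24 h at 37 °C with PROTACs, 11-point 1:3 dilution, 300 nM to 5 pM final, 0.5% DMSO. Fixed cells immunostained for HA and imaged by high-content microscopy; DC50 and Dmax (% of control) derived, toxicity from nuclei counts versus DMSO.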

[2] = target: T2, B-RAF V600E (Homo sapiens, UniProt P15056, V600E); test: Target protein degradation, assay C: T-Rex 293 cells, HA-BRAF_V600E, 384 well format; type: cell-based; settings: T-Rex 293 HA-BRAF_V600E cells, 24 hours, Examples 83-269; for DC50: Assay C; for Dmax: T-REx-293, Assay C
T2 construct: expressed in transfected cells; host or cells: T-Rex 293 cells (Invitrogen #R71007)
Outline: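 T-Rex 293 cells stably expressing doxycycline-induced (1 ng/mL) HA-BRAF V600E were treated 24 h at 37 °C with compound (300 nM–5 pM, 11 points, 0.5% DMSO). HA immunofluorescence was quantified by high-content imaging to give DC50 and Dmax (% of control); nuclei counts versus DMSO gauged toxicity.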

T2 sequence (P15056 whole entry V600E): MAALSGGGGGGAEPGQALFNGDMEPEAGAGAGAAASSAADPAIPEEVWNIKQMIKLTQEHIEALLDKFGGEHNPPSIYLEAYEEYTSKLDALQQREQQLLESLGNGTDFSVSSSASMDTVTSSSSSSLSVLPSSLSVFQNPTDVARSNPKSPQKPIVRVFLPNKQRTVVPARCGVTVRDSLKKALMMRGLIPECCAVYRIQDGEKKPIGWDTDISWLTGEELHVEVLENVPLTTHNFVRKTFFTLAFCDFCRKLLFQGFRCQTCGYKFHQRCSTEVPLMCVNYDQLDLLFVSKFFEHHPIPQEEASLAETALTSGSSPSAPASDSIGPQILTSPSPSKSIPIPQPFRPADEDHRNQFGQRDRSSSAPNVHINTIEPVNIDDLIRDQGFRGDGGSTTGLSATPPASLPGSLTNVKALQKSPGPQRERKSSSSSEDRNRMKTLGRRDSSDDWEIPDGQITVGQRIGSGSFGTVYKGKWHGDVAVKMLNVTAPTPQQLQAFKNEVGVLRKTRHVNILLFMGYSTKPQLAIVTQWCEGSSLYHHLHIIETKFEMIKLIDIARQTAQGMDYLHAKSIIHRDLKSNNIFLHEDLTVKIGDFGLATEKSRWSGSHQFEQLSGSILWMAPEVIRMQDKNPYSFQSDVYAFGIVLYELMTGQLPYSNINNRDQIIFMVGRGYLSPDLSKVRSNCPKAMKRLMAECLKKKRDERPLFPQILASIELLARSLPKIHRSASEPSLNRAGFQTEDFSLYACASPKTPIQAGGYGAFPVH
T1 sequence (P15056 whole entry G466V): as the sequence (P15056 whole entry V600E) above, with G466V, E600V counted along it

For `N#Cc1c(NS(=O)(=O)N2CC[C@@H](F)C2)ccc(F)c1Oc1ccc2ncn(-c3ccc(N4CC5(CC(CN6CCC(c7ccc8c(c7)CN(C7CCC(=O)NC7=O)C8=O)CC6)C5)C4)cc3)c(=O)c2c1` (stereo partly drawn) [Example 190, (3R)-N-{2-cyano-3-[(3-(4-[6-({4-[2-(2,6-dioxopiperidin-3-yl)-1-oxo-2,3-dihydro-1H-isoindol-5-yl]piperidin-1-yl}methyl)-2-azaspiro[3.3]heptan-2-yl]phenyl}-4-oxo-3,4-dihydroquinazolin-6-yl)oxy]-4-fluorophenyl}-3-fluoropyrrolidine-1-sulfonamide], which DC50 [1] is on record?
The DC50 was 1 to 10 nM.

And the Dmax [1]?
Its Dmax is 35 to 70%.

And the DC50 [2]?
The DC50 was 50 to 500 nM.

And the Dmax [2]?
The Dmax was 35 to 70%.

Which results are given for `N#Cc1c(NS(=O)(=O)N2CC[C@@H](F)C2)ccc(F)c1Oc1ccc2ncn(-c3ccc(N4CCC(CCN5CCN(c6ccc7c(c6)C(=O)N(C6CCC(=O)NC6=O)C7=O)CC5)CC4)nc3)c(=O)c2c1` (stereo partly drawn) [Example 163, (3R)-N-{2-cyano-3-[(3-{6-[4-(2-{4-[2-(2,6-dioxopiperidin-3-yl)-1,3-dioxo-2,3-dihydro-1H-isoindol-5-yl]piperazin-1-yl}ethyl)piperidin-1-yl]pyridin-3-yl}-4-oxo-3,4-dihydroquinazolin-6-yl)oxy]-4-fluorophenyl}-3-fluoropyrrolidine-1-sulfonamide]?
DC50 [1]: 10 to 30 nM; Dmax [1]: ≤ 35%; DC50 [2]: 50 to 500 nM; Dmax [2]: 35 to 70%

With `N#Cc1c(NS(=O)(=O)N2CC[C@@H](F)C2)ccc(F)c1Oc1ccc2ncn(-c3ccc(N4CCN([C@H]5C[C@H](OC6CCN(c7ccc8c(c7)CN(C7CCC(=O)NC7=O)C8=O)CC6)C5)CC4)cc3)c(=O)c2c1` (stereo partly drawn) [Example 251, (3R)-N-(2-cyano-4-fluoro-3-{[4-oxo-3-(4-(4-[(1r,3r)-3-({1-[2-(2,6-dioxopiperidin-3-yl)-1-oxo-2,3-dihydro-1H-isoindol-5-yl]piperidin-4-yl}oxy)cyclobutyl]piperazin-1-yl}phenyl)-3,4-dihydroquinazolin-6-yl]oxy}phenyl)-3-fluoropyrrolidine-1-sulfonamide] as the compound, how does the DC50 [1] read?
Its DC50 is 1 to 10 nM.

And the Dmax [1]?
Its Dmax is 35 to 70%.

And the DC50 [2]?
Its DC50 is 50 to 500 nM.

What about the Dmax [2] of the same compound?
The Dmax was 35 to 70%.

Which results are given for `N#Cc1c(NS(=O)(=O)N2CC[C@@H](F)C2)ccc(F)c1Oc1ccc2ncn(-c3ccc(N4CC(C5CN(c6ccc7c(c6)C(=O)N(C6CCC(=O)NC6=O)C7=O)C5)C4)nc3)c(=O)c2c1` (stereo partly drawn) [Example 158, (3R)-N-(2-cyano-3-{[3-(6-{1'-[2-(2,6-dioxopiperidin-3-yl)-1,3-dioxo-2,3-dihydro-1H-isoindol-5-yl]-[3,3'-biazetidin]-1-yl}pyridin-3-yl)-4-oxo-3,4-dihydroquinazolin-6-yl]oxy}-4-fluorophenyl)-3-fluoropyrrolidine-1-sulfonamide]?
DC50 [1]: ≤ 1 nM; Dmax [1]: ≤ 35%; DC50 [2]: 50 to 500 nM; Dmax [2]: ≤ 35%

What does the source list for `N#Cc1c(NS(=O)(=O)N2CC[C@@H](F)C2)ccc(F)c1Oc1ccc2ncn(-c3ccc(C4CCCN(CC5CCN(c6ccc7c(c6)CN([C@H]6CCC(=O)NC6=O)C7=O)CC5)C4)cc3)c(=O)c2c1` (stereo partly drawn) [Example 207, (3R)-N-(2-cyano-3-{[3-(4-{1-[(1-{2-[(3S)-2,6-dioxopiperidin-3-yl]-1-oxo-2,3-dihydro-1H-isoindol-5-yl}piperidin-4-yl)methyl]piperidin-3-yl}phenyl)-4-oxo-3,4-dihydroquinazolin-6-yl]oxy}-4-fluorophenyl)-3-fluoropyrrolidine-1-sulfonamide]?
DC50 [1]: 1 to 10 nM; Dmax [1]: 35 to 70%; DC50 [2]: 50 to 500 nM; Dmax [2]: ≥ 70%

For `CCN(C)S(=O)(=O)Nc1ccc(F)c(Oc2ccc3ncn(-c4ccc(N5CCN(CC6CCN(c7ccc(C8CCC(=O)NC8=O)cc7F)CC6)CC5)cc4)c(=O)c3c2)c1C#N` (stereo not drawn) [Example 110, 2-[(3-{4-[4-({1-[4-(2,6-dioxopiperidin-3-yl)-2-fluorophenyl]piperidin-4-yl}methyl)piperazin-1-yl]phenyl}-4-oxo-3,4-dihydroquinazolin-6-yl)oxy]-6-{[ethyl(methyl)sulfamoyl]amino}-3-fluorobenzonitrile], which DC50 [1] is on record?
The DC50 was greater than 30 nM.

And the DC50 [2]?
The DC50 was 50 to 500 nM.

And the Dmax [2]?
The Dmax was 35 to 70%.

Which results are given for `N#Cc1c(NS(=O)(=O)N2CC[C@@H](F)C2)ccc(F)c1Oc1ccc2ncn(-c3cnc(N4CCN(c5ccc6c(c5)CN(C5CCC(=O)NC5=O)C6=O)CC4)nc3)c(=O)c2c1` (stereo partly drawn) [Example 127, (3R)-N-(2-cyano-3-{[3-(2-{4-[2-(2,6-dioxopiperidin-3-yl)-1-oxo-2,3-dihydro-1H-isoindol-5-yl]piperazin-1-yl}pyrimidin-5-yl)-4-oxo-3,4-dihydroquinazolin-6-yl]oxy}-4-fluorophenyl)-3-fluoropyrrolidine-1-sulfonamide]?
DC50 [1]: > 30 nM; DC50 [2]: 50 to 500 nM; Dmax [2]: 35 to 70%

Which results are given for `N#Cc1c(NS(=O)(=O)N2CC[C@@H](F)C2)ccc(F)c1Oc1ccc2ncn(-c3ccc(N4CCN(CCN5CCC(c6ccc7c(c6)CN(C6CCC(=O)NC6=O)C7=O)CC5)CC4)cc3)c(=O)c2c1` (stereo partly drawn) [Example 176, (3R)—N-{2-cyano-3-[(3-{4-[4-(2-{4-[2-(2,6-dioxopiperidin-3-yl)-1-oxo-2,3-dihydro-1H-isoindol-5-yl]piperidin-1-yl}ethyl)piperazin-1-yl]phenyl}-4-oxo-3,4-dihydroquinazolin-6-yl)oxy]-4-fluorophenyl}-3-fluoropyrrolidine-1-sulfonamide]?
DC50 [1]: 1 to 10 nM; Dmax [1]: 35 to 70%; DC50 [2]: 50 to 500 nM; Dmax [2]: 35 to 70%

Which results are given for `O=C1CCC(N2Cc3cc(N4CCC(CN5CCN(c6ccc(-n7cnc8ccc(Oc9c(F)ccc(NS(=O)(=O)N%10CC[C@@H](F)C%10)c9F)cc8c7=O)cc6)CC5)CC4)ccc3C2=O)C(=O)N1` (stereo partly drawn) [Example 177, (3R)—N-{3-[(3-{4-[4-({1-[2-(2,6-dioxopiperidin-3-yl)-1-oxo-2,3-dihydro-1H-isoindol-5-yl]piperidin-4-yl}methyl)piperazin-1-yl]phenyl}-4-oxo-3,4-dihydroquinazolin-6-yl)oxy]-2,4-difluorophenyl}-3-fluoropyrrolidine-1-sulfonamide]?
DC50 [1]: 1 to 10 nM; Dmax [1]: 35 to 70%; DC50 [2]: 5 to 50 nM; Dmax [2]: 35 to 70%

Which results are given for `N#Cc1c(NS(=O)(=O)N2CC[C@@H](F)C2)ccc(F)c1Oc1ccc2ncn(-c3ccc(N4CCN(CC5CCN(c6ccc(C7CCC(=O)NC7=O)nc6)CC5)CC4)cc3)c(=O)c2c1` (stereo partly drawn) [Example 95, (3R)-N-{2-cyano-3-[(3-{4-[4-({1-[6-(2,6-dioxopiperidin-3-yl)pyridin-3-yl]piperidin-4-yl}methyl)piperazin-1-yl]phenyl}-4-oxo-3,4-dihydroquinazolin-6-yl)oxy]-4-fluorophenyl}-3-fluoropyrrolidine-1-sulfonamide]?
DC50 [1]: 1 to 10 nM; Dmax [1]: ≤ 35%; DC50 [2]: 5 to 50 nM; Dmax [2]: 35 to 70%

What does the source list for `N#Cc1c(NS(=O)(=O)N2CC[C@@H](F)C2)ccc(F)c1Oc1ccc2ncn(-c3ccc(N4CCC(CN5CCC(c6ccc7c(c6)CN([C@H]6CCC(=O)NC6=O)C7=O)CC5)C4)cc3)c(=O)c2c1` (stereo partly drawn) [Example 221, (3R)-N-(2-cyano-3-{[3-(4-{3-[(4-{2-[(3S)-2,6-dioxopiperidin-3-yl]-1-oxo-2,3-dihydro-1H-isoindol-5-yl}piperidin-1-yl)methyl]pyrrolidin-1-yl}phenyl)-4-oxo-3,4-dihydroquinazolin-6-yl]oxy}-4-fluorophenyl)-3-fluoropyrrolidine-1-sulfonamide]?
DC50 [1]: 1 to 10 nM; Dmax [1]: 35 to 70%; DC50 [2]: 50 to 500 nM; Dmax [2]: 35 to 70%

Which DC50 [1] does the source give for `N#Cc1c(NS(=O)(=O)N2CC[C@@H](F)C2)ccc(F)c1Oc1ccc2ncn(-c3ccc(N4CCC(O[C@H]5C[C@H](N6CCC(c7ccc8c(c7)CN(C7CCC(=O)NC7=O)C8=O)CC6)C5)CC4)cc3)c(=O)c2c1` (stereo partly drawn) [Example 253, (3R)-N-(2-cyano-4-fluoro-3-{[4-oxo-3-(4-{4-[(1r,3r)-3-{4-[2-(2,6-dioxopiperidin-3-yl)-1-oxo-2,3-dihydro-1H-isoindol-5-yl]piperidin-1-yl}cyclobutoxy]piperidin-1-yl}phenyl)-3,4-dihydroquinazolin-6-yl]oxy}phenyl)-3-fluoropyrrolidine-1-sulfonamide] here?
Its DC50 is 1 to 10 nM.

What about the Dmax [1] of the same compound?
The Dmax was 35 to 70%.

What about the DC50 [2] of the same compound?
The DC50 was 50 to 500 nM.

And the Dmax [2]?
Its Dmax is 35 to 70%.

`CN(CC1CCN(c2ccc(-n3cnc4ccc(Oc5c(F)ccc(NS(=O)(=O)N6CC[C@@H](F)C6)c5C#N)cc4c3=O)cc2)CC1)[C@H]1C[C@@H](Oc2ccc3c(c2)CN([C@H]2CCC(=O)NC2=O)C3=O)C1` [Example 206, (3R)-N-{2-cyano-4-fluoro-3-[(3-{4-[4-({methyl[(1r,3r)-3-({2-[(3S)-2,6-dioxopiperidin-3-yl]-1-oxo-2,3-dihydro-1H-isoindol-5-yl}oxy)cyclobutyl]amino}methyl)piperidin-1-yl]phenyl}-4-oxo-3,4-dihydroquinazolin-6-yl)oxy]phenyl}-3-fluoropyrrolidine-1-sulfonamide] was tested. Which DC50 [1] did it give?
The DC50 was 1 to 10 nM.

And the Dmax [1]?
The Dmax was no more than 35%.

What about the DC50 [2] of the same compound?
The DC50 was 50 to 500 nM.

And the Dmax [2]?
Its Dmax is no less than 70%.

How did the DC50 [1] turn out when `N#Cc1c(NS(=O)(=O)N2CC[C@@H](F)C2)ccc(F)c1Oc1ccc2ncn(-c3ccc(N4CCN(CC5CCN(c6ccc7c(c6)CN([C@@H]6CCC(=O)NC6=O)C7=O)CC5)CC4)cc3)c(=O)c2c1` [Example 103, (3R)-N-(2-cyano-3-{[3-(4-{4-[(1-{2-[(3R)-2,6-dioxopiperidin-3-yl]-1-oxo-2,3-dihydro-1H-isoindol-5-yl}piperidin-4-yl)methyl]piperazin-1-yl}phenyl)-4-oxo-3,4-dihydroquinazolin-6-yl]oxy}-4-fluorophenyl)-3-fluoropyrrolidine-1-sulfonamide] was run?
Its DC50 is 1 to 10 nM.

And the Dmax [1]?
Its Dmax is 35 to 70%.

And the DC50 [2]?
The DC50 was 5 to 50 nM.

And the Dmax [2]?
The Dmax was 35 to 70%.
